Among the test systems are BT-549 breast; COLO 205 colon; HOP-62 NSCLC; HS 578T breast; MALME-3M melanoma; OVCAR-4 ovarian; OVCAR-5 ovarian; SF-268 CNS; SK-MEL-2 melanoma; UACC-62 melanoma.
Common to all, as to experiment: DTP human tumour cell line panel, 48 h

Each structure is given as a SMILES string.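 Where inhibition never reached the appropriate level, the endpoint shown equals the highest concentration tested. Otherwise, values were interpolated linearly from a five-concentration, 48-hour dose response in 96-well plates. The concentration for 50% growth inhibition is given as GI50. TGI: total growth inhibition.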

Regarding `Cc1c(-c2ccccc2)[nH]n(C2=NCCN2)c1=O`, the total growth inhibition concentration (TGI) in the test on BT-549 breast, in the test with COLO 205 colon, in the test with HOP-62 NSCLC, in the test with HS 578T breast, in the test on MALME-3M melanoma and with OVCAR-4 ovarian was above 100 µM throughout. In addition, the TGI in the test on OVCAR-5 ovarian, in the test on SF-268 CNS, in the test with SK-MEL-2 melanoma and in the test with UACC-62 melanoma was above 100 µM throughout.

For the compound `COc1nc2c(N3CCCC3)nc(N3CCNCC3)nc2nc1NCc1ccccc1`, the TGI was 4.01 µM in the test on BT-549 breast; 1.98 µM with COLO 205 colon; 2.29 µM with HOP-62 NSCLC; 5.14 µM in the test with HS 578T breast; 3.55 µM with MALME-3M melanoma; 11.5 µM in the test with OVCAR-4 ovarian. Also, the TGI in the test on OVCAR-5 ovarian worked out at 8.04 µM; in the test with SF-268 CNS it was 5 µM; with SK-MEL-2 melanoma it was 3.11 µM; with UACC-62 melanoma it was 3.29 µM.

On to `O=C(CC(=O)Nc1ccccc1)NNC(c1cc(N=Nc2ccc(Br)cc2)ccc1O)P(O)O` (stereo not given), for which the TGI in the test on BT-549 breast, with COLO 205 colon, in the test on HOP-62 NSCLC, in the test on HS 578T breast, in the test on MALME-3M melanoma and in the test with OVCAR-4 ovarian was above 10 µM in each case. Moreover, the TGI with OVCAR-5 ovarian was above 10 µM; with SF-268 CNS it was above 10 µM; in the test with SK-MEL-2 melanoma, above 10 µM; in the test on UACC-62 melanoma it was 9.13 µM.

Consider `C/C(=C\CO)CC/C=C(\C)CNc1ccc([N+](=O)[O-])cc1`, for which the TGI was 37.5 µM in the test with BT-549 breast; above 100 µM in the test with COLO 205 colon; above 100 µM in the test on HOP-62 NSCLC; 71.6 µM in the test on HS 578T breast; 34.6 µM in the test with MALME-3M melanoma; above 100 µM in the test with OVCAR-4 ovarian. The TGI in the test with OVCAR-5 ovarian is above 100 µM; with SF-268 CNS, above 100 µM; in the test with SK-MEL-2 melanoma, 79.5 µM; with UACC-62 melanoma, above 100 µM.

As for `O=C(O)CN(CC(=O)O)C(C(=O)O)c1ccccc1` (stereo not given), the TGI in the test with BT-549 breast, in the test on COLO 205 colon, with HOP-62 NSCLC, in the test on HS 578T breast, in the test on MALME-3M melanoma and with OVCAR-4 ovarian was above 100 µM each time. In addition, the TGI in the test on OVCAR-5 ovarian, with SF-268 CNS, with SK-MEL-2 melanoma and in the test with UACC-62 melanoma was above 100 µM each time.

For the compound `CC(C)=CCC[C@@H](C)C1=C(O)C(N)=C(C)C(=O)C1=O`, the total growth inhibition concentration (TGI) in the test on BT-549 breast, in the test with COLO 205 colon, with HOP-62 NSCLC, in the test on HS 578T breast, in the test with MALME-3M melanoma and in the test on OVCAR-4 ovarian was above 100 µM throughout. Further, the TGI in the test on OVCAR-5 ovarian was above 100 µM; with SF-268 CNS, above 100 µM; with SK-MEL-2 melanoma it was above 100 µM; with UACC-62 melanoma, above 93.4 µM.

As for `O=[N+]([O-])c1cc(Cl)ccc1Sc1ccccc1`, the TGI in the test on BT-549 breast, in the test on COLO 205 colon, with HOP-62 NSCLC, in the test with HS 578T breast, in the test with MALME-3M melanoma and in the test on OVCAR-4 ovarian was above 100 µM throughout. The TGI with OVCAR-5 ovarian, in the test with SF-268 CNS, in the test on SK-MEL-2 melanoma and in the test on UACC-62 melanoma was above 100 µM in each case.

Regarding `COP(=O)(OC)C(Nc1ccc(Cc2ccc(NC(c3ccco3)P(=O)(OC)OC)cc2)cc1)c1ccco1` (stereo not given), the TGI is 60 µM in the test on BT-549 breast; above 100 µM in the test on COLO 205 colon; 20.4 µM with HOP-62 NSCLC; above 100 µM in the test with HS 578T breast; above 100 µM in the test on MALME-3M melanoma; above 100 µM in the test on OVCAR-4 ovarian. The TGI in the test on OVCAR-5 ovarian was above 100 µM; in the test on SF-268 CNS it was above 100 µM; in the test with SK-MEL-2 melanoma, 35.7 µM; with UACC-62 melanoma it was 50.5 µM.

For the compound `CC(C)/C(Cl)=N/OC(=O)Nc1ccc(OC(F)(F)F)cc1`, the TGI came out at 29.8 µM with BT-549 breast; 3.26 µM in the test on COLO 205 colon; 31.7 µM with HOP-62 NSCLC; 43 µM with HS 578T breast; 6.5 µM in the test on MALME-3M melanoma; 16.7 µM with OVCAR-4 ovarian. Further, the TGI in the test with OVCAR-5 ovarian turned out to be 29.2 µM; in the test with SF-268 CNS it was 39.1 µM; with SK-MEL-2 melanoma, 28.1 µM; in the test on UACC-62 melanoma it was 30.2 µM.

Turning to `Nc1nc(Nc2ccccc2)sc1C(=O)c1ccco1`, the TGI with BT-549 breast worked out at 54.3 µM; in the test with COLO 205 colon, 27.8 µM; in the test on HOP-62 NSCLC, 67.8 µM; with HS 578T breast, 40.8 µM; in the test on MALME-3M melanoma it was 57.1 µM; in the test with OVCAR-4 ovarian it was 50.5 µM. Moreover, the TGI in the test with OVCAR-5 ovarian is 71.5 µM; with SF-268 CNS, above 100 µM; with SK-MEL-2 melanoma, 36.7 µM; in the test on UACC-62 melanoma, 40.1 µM.

Take `N#Cc1c(-c2ccccc2)c2c([nH]c1=O)-c1cc([N+](=O)[O-])ccc1CCC2`: the total growth inhibition concentration (TGI) in the test on BT-549 breast was 42.7 µM; with COLO 205 colon, 55.3 µM; with HOP-62 NSCLC, 70.2 µM; in the test on HS 578T breast, above 100 µM; with MALME-3M melanoma, above 100 µM; in the test with OVCAR-4 ovarian it was above 100 µM. Further, the TGI was above 100 µM in the test on OVCAR-5 ovarian, above 100 µM in the test on SF-268 CNS, 59.3 µM in the test with SK-MEL-2 melanoma and 37.3 µM in the test on UACC-62 melanoma.

As for `COc1cc2[nH]c(-c3ccccc3)cc(=O)c2c(OC)c1OC`, the TGI with BT-549 breast, in the test on COLO 205 colon, in the test on HOP-62 NSCLC, in the test with HS 578T breast, with MALME-3M melanoma and with OVCAR-4 ovarian was above 100 µM throughout. The concentration for total growth inhibition (TGI) in the test on OVCAR-5 ovarian, in the test on SF-268 CNS, in the test on SK-MEL-2 melanoma and in the test on UACC-62 melanoma was above 100 µM each time.

As to `Clc1ccc(/C(=C\c2ccccc2)Cn2ccnc2)cc1`, the TGI in the test with BT-549 breast was 38 µM; in the test on COLO 205 colon it was 28.6 µM; with HOP-62 NSCLC, 38.3 µM; with HS 578T breast, above 100 µM; in the test with MALME-3M melanoma, 27 µM; with OVCAR-4 ovarian it was above 100 µM. In addition, the TGI in the test with OVCAR-5 ovarian amounted to 63 µM; in the test with SF-268 CNS it was 53.4 µM; with SK-MEL-2 melanoma, 30.3 µM; with UACC-62 melanoma, 35.8 µM.

On to `O=C(OCC1OC(n2nc(Cn3nnc(-c4cccnc4)n3)n(-c3cccc4ccccc34)c2=S)C(OC(=O)c2ccccc2)C1OC(=O)c1ccccc1)c1ccccc1` (stereo not given), for which the total growth inhibition concentration (TGI) in the test on BT-549 breast, with COLO 205 colon, in the test with HOP-62 NSCLC, in the test with HS 578T breast, in the test with MALME-3M melanoma and in the test with OVCAR-4 ovarian was above 100 µM throughout. Moreover, the TGI in the test on OVCAR-5 ovarian, in the test with SF-268 CNS, in the test with SK-MEL-2 melanoma and in the test on UACC-62 melanoma was above 100 µM throughout.

As for `COc1ccc2c(c1)c(=O)c1c(NCCNCCO)ccc3c(=O)n(CCN(C)C)c(=O)n2c31`, the TGI with BT-549 breast is 2.49 µM; in the test on COLO 205 colon, 0.247 µM; with HOP-62 NSCLC, 2.4 µM; in the test with HS 578T breast, 0.581 µM; in the test on MALME-3M melanoma, 0.449 µM; with OVCAR-4 ovarian, 0.511 µM. For the same compound, the TGI with OVCAR-5 ovarian was 3.05 µM; in the test with SF-268 CNS it was 0.619 µM; in the test on SK-MEL-2 melanoma it was 0.634 µM; with UACC-62 melanoma, 0.293 µM.

Regarding `COc1ccc(-n2nc(C)c3c(Nc4ccc(NC(=O)Nc5ccc(Cl)c(C(F)(F)F)c5)cc4)ncnc32)cc1`, the GI50 is 2.08 µM with BT-549 breast; 1.71 µM in the test on COLO 205 colon; 1.83 µM with HOP-62 NSCLC; 1.58 µM in the test with HS 578T breast; 1.54 µM with MALME-3M melanoma; 2.85 µM in the test with OVCAR-4 ovarian. The GI50 is 1.83 µM in the test with OVCAR-5 ovarian, 2.61 µM with SF-268 CNS, 2.23 µM in the test on SK-MEL-2 melanoma and 1.78 µM in the test with UACC-62 melanoma. Besides, the TGI in the test on BT-549 breast was 6.34 µM; in the test on COLO 205 colon, 3.64 µM; in the test with HOP-62 NSCLC, 3.66 µM; in the test on HS 578T breast, 4.2 µM; with MALME-3M melanoma, 3.35 µM; with OVCAR-4 ovarian, above 100 µM. Besides, the TGI turned out to be 4.71 µM in the test with OVCAR-5 ovarian, 7.99 µM with SF-268 CNS, 4.43 µM with SK-MEL-2 melanoma and 3.74 µM with UACC-62 melanoma.

Turning to `CC(C)C1=C(O)C2=C(C(=O)C1=O)C1(C)CCCC(C)(C)C1C(O)C2OC=O` (stereo not given), the TGI was 21.5 µM in the test on BT-549 breast; 12.5 µM in the test with COLO 205 colon; above 100 µM in the test on HOP-62 NSCLC; 98.8 µM in the test on HS 578T breast; 23.7 µM in the test with MALME-3M melanoma; 22.8 µM in the test on OVCAR-4 ovarian. The TGI is 30.9 µM in the test with OVCAR-5 ovarian, 24.4 µM in the test with SF-268 CNS, 28.6 µM with SK-MEL-2 melanoma and 19.4 µM in the test on UACC-62 melanoma.

Consider `COC1C(O)C(O[C@H]2CC[C@@]3(C)C(CC[C@@H]4[C@@H]3CC[C@]3(C)[C@@H](C(C)OC5OC(CO)C(O)C(O)C5O)CC[C@]43O)C2)OC(C)C1OC1OC(CO)C(O)C(O)C1O` (stereo not given in full), for which the TGI in the test with BT-549 breast, with COLO 205 colon, in the test with HOP-62 NSCLC, with HS 578T breast, in the test with MALME-3M melanoma and with OVCAR-4 ovarian was above 100 µM throughout. For the same compound, the TGI in the test with OVCAR-5 ovarian, in the test on SF-268 CNS, in the test with SK-MEL-2 melanoma and in the test on UACC-62 melanoma was above 100 µM throughout.

(Values after PubChem BioAssay (NCI).)
